This note sets out measurements from patent US7211422B2, “Polypeptide having α-isomaltosylglucosaccharide synthase activity” (Kabushiki Kaisha Hayashibara Seibutsu Kagaku Kenkyujo, priority 2001, dated 2007).

The subject of assay [1] is polypeptide having α-isomaltosylglucosaccharide-forming enzyme activity. Nature of the assay: Action on saccharides, summary in words for the polypeptide in general. Type of assay: biochemical. To be noted: summary of Table 7. The protocol:
(§1) It was tested whether saccharides can be used as substrates for the polypeptide of α-isomaltosylglucosaccharide-forming enzyme of the present invention. For the purpose, a solution of maltose, maltotriose, maltotetraose, maltopentaose, maltohexaose, maltoheptaose, isomaltose, isomaltotriose, panose, isopanose, trehalose, kojibiose, nigerose, neotrehalose, cellobiose, gentibiose, maltitol, maltotriitol, lactose, sucrose, erlose, selaginose, maltosyl glucoside, or isomaltosyl glucoside was prepared.
(§2) To each of the above solutions was added two units/g substrate of a purified polypeptide specimen of α-isomaltosylglucosaccharide-forming enzyme from either Bacillus globisporus C11 obtained by the method in Experiment 1-3, Bacillus globisporus N75 obtained by the method in Experiment 2-3, or Arthrobacter globiformis A19 obtained by the method in Experiment 3-3, and the resulting each solution was adjusted to give a substrate concentration of 2% (w/v) and incubated at 30° C. and pH 6.0, except for using pH 8.4 for the enzyme from Arthrobacter globiformis A19, for 24 hours. In order to analyze the saccharides in the reaction mixture before and after the enzymatic reaction, silica gel thin-layer chromatography (hereinafter, abbreviated as “TLC”) was carried out. After two-times development using, as a developer, a mixture solution of n-butanol, pyridine, and water (=6:4:1), and, as a thin-layer plate, “KIESELGEL 60”, an aluminum plate (20×20 cm) for TLC commercialized by Merck & Co., Inc., Rahway, USA, the saccharides in the reaction mixture were examined whether the enzyme acted or not by the coloration of sugars by the sulfuric acid-methanol method.

Assay [2] deals with α-isomaltosylglucosaccharide-forming enzyme from Bacillus globisporus C11. As to the kind of experiment: Action on saccharides (TLC before and after enzymatic reaction). Format: biochemical. Details: key: −: it showed no change; +: it showed a slight reduction of the color spot of the substrate and the formation of other reaction product; ++: it showed a high reduction of the color spot of the substrate and the formationof other reaction product; +++: it showed a substantial disappearance of the substrate spot and the formation of other reaction product. Particulars: two units/g substrate, substrate 2% (w/v), 30° C., pH 6.0, 24 hours. The protocol: as §1, §2

Assay [3] concerns α-isomaltosylglucosaccharide-forming enzyme from Bacillus globisporus N75. Described as above. To be noted: two units/g substrate, substrate 2% (w/v), 30° C., pH 6.0, 24 hours. On the set-up: key: −: it showed no change; +: it showed a slight reduction of the color spot of the substrate and the formation of other reaction product; ++: it showed a high reduction of the color spot of the substrate and the formationof other reaction product; +++: it showed a substantial disappearance of the substrate spot and the formation of other reaction product. Type of assay: biochemical. The method, then:
as §1, §2

For assay [4], the system named is α-isomaltosylglucosaccharide-forming enzyme from Arthrobacter globiformis A19. The description is as above. Format: biochemical. Particulars: two units/g substrate, substrate 2% (w/v), 30° C., pH 8.4, 24 hours. Details: key: −: it showed no change; +: it showed a slight reduction of the color spot of the substrate and the formation of other reaction product; ++: it showed a high reduction of the color spot of the substrate and the formationof other reaction product; +++: it showed a substantial disappearance of the substrate spot and the formation of other reaction product. The method, then: as §1, §2

Assay [5] has as its system polypeptide having α-isomaltosylglucosaccharide-forming enzyme activity, obtained in Experiment 1-3. Nature of the assay: Reaction product from maltooligosaccharide (sugar composition by HPLC). Format: biochemical, Bacillus globisporus C11. Details: unit not given here. Particulars: 1% (w/v) substrate, 35° C., pH 6.0, 8 hours; for Sugar composition of reaction mixture, substrate Maltopentaose: 0.1 unit/g-solid; for Sugar composition of reaction mixture, substrate Maltotetraose: 0.2 unit/g-solid; for Sugar composition of reaction mixture, substrate Maltotriose / Sugar composition of reaction mixture, substrate Mlatose: two units/g-solid. The method, then: To an aqueous solution containing one percent (w/v) of maltose, maltotriose, maltotetraose, or maltopentaose as a substrate was added the polypeptide having α-isomaltosylglucosaccgaride-forming enzyme activity, obtained in Experiment 1-3, in an amount of two units/g-solid for maltose and maltotriose, 0.2 unit/g-solid for maltotetraose, and 0.1 unit/g-solid for maltopentaose, followed by incubation at 35° C. and pH 6.0 for 8 hours. After stopping the enzymatic reaction by a 10-minutes incubation, sugar compositions in the reaction mixture were measured by HPLC using “YMC Pack ODS-AQ303”, a column commercialized by YMC Co., Ltd., Tokyo, Japan, at a column temperature of 40° C. and a flow rate of 0.5 ml/minutes of water, and using as a detector “RI-8012”, a differential refractometer commercialized by Tosoh Corporation, Tokyo, Japan.

Take `OC[C@H]1O[C@@](CO)(O[C@H]2O[C@H](CO)[C@@H](O[C@H]3O[C@H](CO)[C@@H](O)[C@H](O)[C@H]3O)[C@H](O)[C@H]2O)[C@@H](O)[C@@H]1O` [Erlose, erlose]: the “Action of the polypeptide on the saccharide (in words)” value (“Action of the polypeptide” below) in assay [1] was “slightly acted”. Besides, the “Enzyme action, C11 enzyme” value in assay [2] was “+”. In addition, in assay [3], the “Enzyme action, N75 enzyme” value is recorded as “+”. In addition, the “Enzyme action, A19 enzyme” value in assay [4] is recorded as “+”.
Turning to `OC[C@H]1O[C@H](O[C@H]2C(O)O[C@H](CO)[C@@H](O)[C@@H]2O)[C@H](O)[C@@H](O)[C@@H]1O` (stereo partly shown) [Kojibiose, kojibiose], the “Action of the polypeptide” value in assay [1] was “slightly acted”. Further, in assay [2], the “Enzyme action, C11 enzyme” value is “+”. The “Enzyme action, N75 enzyme” value in assay [3] is “+”. Also, in assay [4], the “Enzyme action, A19 enzyme” value is “+”.
As for `OC[C@H]1O[C@H](O[C@H]2[C@H](O)[C@@H](O)[C@H](O)O[C@@H]2CO)[C@H](O)[C@@H](O)[C@@H]1O` [Maltose, maltose], in assay [5], the “Sugar composition of reaction mixture, substrate Maltopentaose” value (“Sugar composition … substrate Maltopentaose” for short) is listed as 0.0; the “Sugar composition of reaction mixture, substrate Maltotetraose” value (from here on “Sugar composition … substrate Maltotetraose”) is on record as 0.3; the “Sugar composition of reaction mixture, substrate Maltotriose” value (from here on “Sugar composition … substrate Maltotriose”) came to 17.9; the “Sugar composition of reaction mixture, substrate Mlatose” value (“Sugar composition … substrate Mlatose” below) amounted to 78.0. For the same molecule, the “Action of the polypeptide” value in assay [1] is reported as “slightly acted”. Further, in assay [2], the “Enzyme action, C11 enzyme” value is given as “+”. Further, the “Enzyme action, N75 enzyme” value in assay [3] is given as “+”. The “Enzyme action, A19 enzyme” value in assay [4] was “+”.
`OC[C@@H](O)[C@@H](O[C@H]1O[C@H](CO)[C@@H](O[C@H]2O[C@H](CO)[C@@H](O)[C@H](O)[C@H]2O)[C@H](O)[C@H]1O)[C@H](O)[C@@H](O)CO` [Maltotriitol, maltotriitol]: the “Action of the polypeptide” value in assay [1] was “slightly acted”. In addition, the “Enzyme action, C11 enzyme” value in assay [2] is given as “+”. In addition, in assay [3], the “Enzyme action, N75 enzyme” value is recorded as “+”. The “Enzyme action, A19 enzyme” value in assay [4] is on record as “+”.
In the case of `OC[C@H]1O[C@@H](O[C@H]2O[C@H](CO)[C@@H](O)[C@H](O)[C@H]2O)[C@H](O)[C@@H](O)[C@@H]1O` [Neotrehalose, neotrehalose], the “Action of the polypeptide” value in assay [1] was “slightly acted”. Also, the “Enzyme action, C11 enzyme” value in assay [2] was “+”. Further, the “Enzyme action, N75 enzyme” value in assay [3] is given as “+”. In addition, the “Enzyme action, A19 enzyme” value in assay [4] is recorded as “+”.
With `OC[C@H]1O[C@H](O[C@H]2[C@H](O)[C@@H](CO)OC(O)[C@@H]2O)[C@H](O)[C@@H](O)[C@@H]1O` (stereo partly shown) [Nigerose, nigerose], the “Action of the polypeptide” value in assay [1] is on record as “slightly acted”. The “Enzyme action, C11 enzyme” value in assay [2] is reported as “+”. In addition, the “Enzyme action, N75 enzyme” value in assay [3] is reported as “+”. The “Enzyme action, A19 enzyme” value in assay [4] is reported as “+”.
For maltohexaose, in assay [5], the “Sugar composition … substrate Maltopentaose” value is given as 4.6; the “Sugar composition … substrate Maltotetraose” value was 0.0; the “Sugar composition … substrate Maltotriose” value came to 0.0; the “Sugar composition … substrate Mlatose” value was 0.0. Moreover, in assay [2], the “Enzyme action, C11 enzyme” value is reported as “+++”. The “Enzyme action, N75 enzyme” value in assay [3] is given as “+++”. In addition, the “Enzyme action, A19 enzyme” value in assay [4] is listed as “+++”.
On to maltopentaose, for which, in assay [5], the “Sugar composition … substrate Maltopentaose” value stood at 34.4; the “Sugar composition … substrate Maltotetraose” value came to 3.5; the “Sugar composition … substrate Maltotriose” value is recorded as 0.0; the “Sugar composition … substrate Mlatose” value is listed as 0.0. Also, the “Enzyme action, C11 enzyme” value in assay [2] is reported as “+++”. The “Enzyme action, N75 enzyme” value in assay [3] was “+++”. In assay [4], the “Enzyme action, A19 enzyme” value is “+++”.
As to maltotriose, in assay [5], the “Sugar composition … substrate Maltopentaose” value worked out at 1.9; the “Sugar composition … substrate Maltotetraose” value came out at 22.7; the “Sugar composition … substrate Maltotriose” value came out at 45.3; the “Sugar composition … substrate Mlatose” value was found to be 0.8. In addition, the “Enzyme action, C11 enzyme” value in assay [2] is “++”. In addition, the “Enzyme action, N75 enzyme” value in assay [3] is listed as “++”. Further, the “Enzyme action, A19 enzyme” value in assay [4] is “++”.
